Test results reported in PubChem BioAssay (NCI).
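Cells were grown in 96-well plates and exposed to each compound for 48 hours at five concentrations; endpoints were interpolated linearly between bracketing concentrations, or set to the highest concentration if not reached. Here, GI50 denotes the concentration required for 50% inhibition of growth. At the TGI there is no net growth.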

Assays:
Test in all cases: DTP human tumour cell line panel, 48 h
MALME-3M melanoma = tested on: MALME-3M melanoma
HCC-2998 colon = tested on: HCC-2998 colon
OVCAR-4 ovarian = tested on: OVCAR-4 ovarian
UACC-62 melanoma = tested on: UACC-62 melanoma
HOP-92 NSCLC = tested on: HOP-92 NSCLC
NCI-H226 lung = tested on: NCI-H226 lung
RPMI-8226 leukemia = tested on: RPMI-8226 leukemia
M14 melanoma = tested on: M14 melanoma
NCI-H460 lung = tested on: NCI-H460 lung
OVCAR-5 ovarian = tested on: OVCAR-5 ovarian
SK-MEL-2 melanoma = tested on: SK-MEL-2 melanoma
COLO 205 colon = tested on: COLO 205 colon
EKVX NSCLC = tested on: EKVX NSCLC
K-562 leukemia = tested on: K-562 leukemia
MDA-MB-435 = tested on: MDA-MB-435
OVCAR-8 ovarian = tested on: OVCAR-8 ovarian
UO-31 renal = tested on: UO-31 renal
SNB-19 CNS = tested on: SNB-19 CNS
KM12 colon = tested on: KM12 colon
HL-60(TB) leukemia = tested on: HL-60(TB) leukemia
SF-268 CNS = tested on: SF-268 CNS
SF-539 CNS = tested on: SF-539 CNS
A549 NSCLC = tested on: A549 NSCLC
LOX IMVI melanoma = tested on: LOX IMVI melanoma
RXF 393 renal = tested on: RXF 393 renal
SK-MEL-28 melanoma = tested on: SK-MEL-28 melanoma
CCRF-CEM leukemia = tested on: CCRF-CEM leukemia
MCF7 breast = tested on: MCF7 breast
SW-620 colon = tested on: SW-620 colon

With `CCNC(=O)N1CCc2cc(OC)c(OCCc3ccc(OC)nc3)cc2C1c1ccc(C)cc1C` (configuration not stated) as the compound, how does the GI50 (MALME-3M melanoma) read?
The GI50 was 1.35 µM.

And the TGI (MALME-3M melanoma)?
The TGI was 50.2 µM.

And the GI50 (HCC-2998 colon)?
Its GI50 is 1.56 µM.

What about the TGI (HCC-2998 colon) of the same compound?
Its TGI is 17.8 µM.

And the GI50 (OVCAR-4 ovarian)?
Its GI50 is 3.3 µM.

And the TGI (OVCAR-4 ovarian)?
The TGI was > 100 µM.

And the GI50 (UACC-62 melanoma)?
Its GI50 is 0.43 µM.

What about the TGI (UACC-62 melanoma) of the same compound?
Its TGI is 12.2 µM.

What about the GI50 (HOP-92 NSCLC) of the same compound?
Its GI50 is 4.52 µM.

And the TGI (HOP-92 NSCLC)?
Its TGI is 27.4 µM.

What about the GI50 (NCI-H226 lung) of the same compound?
Its GI50 is 1.73 µM.

And the TGI (NCI-H226 lung)?
The TGI was 11.4 µM.

And the GI50 (RPMI-8226 leukemia)?
The GI50 was 0.531 µM.

And the TGI (RPMI-8226 leukemia)?
Its TGI is 3.58 µM.

What about the GI50 (M14 melanoma) of the same compound?
The GI50 was 0.722 µM.

What about the TGI (M14 melanoma) of the same compound?
The TGI was 19.3 µM.

And the GI50 (NCI-H460 lung)?
Its GI50 is 0.241 µM.

What about the TGI (NCI-H460 lung) of the same compound?
Its TGI is 6.36 µM.

And the GI50 (OVCAR-5 ovarian)?
Its GI50 is 2.02 µM.

What about the TGI (OVCAR-5 ovarian) of the same compound?
Its TGI is > 100 µM.

And the GI50 (SK-MEL-2 melanoma)?
Its GI50 is 3.33 µM.

What about the TGI (SK-MEL-2 melanoma) of the same compound?
Its TGI is 16.4 µM.

And the GI50 (COLO 205 colon)?
The GI50 was 0.792 µM.

What about the TGI (COLO 205 colon) of the same compound?
The TGI was 4.17 µM.

What about the GI50 (EKVX NSCLC) of the same compound?
The GI50 was 4.03 µM.

And the TGI (EKVX NSCLC)?
Its TGI is > 100 µM.

And the GI50 (K-562 leukemia)?
The GI50 was 0.259 µM.

What about the TGI (K-562 leukemia) of the same compound?
The TGI was > 100 µM.

And the GI50 (MDA-MB-435)?
The GI50 was 0.37 µM.

What about the TGI (MDA-MB-435) of the same compound?
Its TGI is 5.89 µM.

And the GI50 (OVCAR-8 ovarian)?
The GI50 was 0.675 µM.

What about the TGI (OVCAR-8 ovarian) of the same compound?
The TGI was > 43.1 µM.

What about the GI50 (UO-31 renal) of the same compound?
The GI50 was 0.929 µM.

And the TGI (UO-31 renal)?
The TGI was > 100 µM.

What about the GI50 (SNB-19 CNS) of the same compound?
The GI50 was 0.837 µM.

What about the TGI (SNB-19 CNS) of the same compound?
The TGI was > 100 µM.

And the GI50 (KM12 colon)?
The GI50 was 0.634 µM.

And the TGI (KM12 colon)?
Its TGI is > 40.4 µM.

What about the GI50 (HL-60(TB) leukemia) of the same compound?
The GI50 was 0.651 µM.

What about the TGI (HL-60(TB) leukemia) of the same compound?
The TGI was 3.82 µM.

What about the GI50 (SF-268 CNS) of the same compound?
Its GI50 is 0.927 µM.

And the TGI (SF-268 CNS)?
Its TGI is 50.1 µM.

And the GI50 (SF-539 CNS)?
The GI50 was 0.501 µM.

What about the TGI (SF-539 CNS) of the same compound?
Its TGI is 5.23 µM.

What about the GI50 (A549 NSCLC) of the same compound?
The GI50 was 0.984 µM.

And the TGI (A549 NSCLC)?
Its TGI is > 100 µM.

What about the GI50 (LOX IMVI melanoma) of the same compound?
Its GI50 is 0.308 µM.

What about the TGI (LOX IMVI melanoma) of the same compound?
The TGI was 5.41 µM.

And the GI50 (RXF 393 renal)?
Its GI50 is 1.07 µM.

And the TGI (RXF 393 renal)?
The TGI was 15 µM.

And the GI50 (SK-MEL-28 melanoma)?
Its GI50 is 0.873 µM.

What about the TGI (SK-MEL-28 melanoma) of the same compound?
Its TGI is 32.1 µM.

And the GI50 (CCRF-CEM leukemia)?
The GI50 was 0.519 µM.

What about the TGI (CCRF-CEM leukemia) of the same compound?
Its TGI is 55 µM.

And the GI50 (MCF7 breast)?
Its GI50 is 0.443 µM.

What about the TGI (MCF7 breast) of the same compound?
The TGI was > 100 µM.

And the GI50 (SW-620 colon)?
Its GI50 is 0.466 µM.
